Test results reported in patent US20190060428A1, “FORMULATIONS FOR NEOPLASIA VACCINES AND METHODS OF PREPARING THEREOF” (The Broad Institue Inc., priority 2015, published 2019).
Values belong to the substance of their own block, whether it stands above or below them.

Experiments:
Assay type in all cases: physicochemical
[1] = Solubility of peptides in DMSO (50 mg/ml)
Protocol: The only problematic peptides are very hydrophobic peptides. Additional peptide solubility conditions were tested. Peptides CS6709, CS6712, CS6720, CS6726, and CS6783 were weighed at approximately 10 mg each. The peptides were then dissolved in approximately 200 μL USP grade DMSO to obtain a 50 mg/mL concentration for each peptide. […] The sample appeared to be cloudy. Additional 50 μL increments of DMSO were added to Peptide CS6709 up to 400 μL; for a total of 600 μL of DMSO.

[2] = Peptide diluent matrix (precipitation of DMSO dissolved peptides in various liquids); set-up: key to Precipitation in diluent: Liposome / Precipitation in diluent: PBS pH 7.4 / Precipitation in diluent: Water / Precipitation in diluent: 10% Sucrose / Precipitation in diluent: D5W (5% Dextrose USP Grade Inj): P = precipitation; NP = no precipitation; details: for Precipitation in diluent: 10% Sucrose: 10-20 μL DMSO dissolved peptide added to 10% Sucrose; for Precipitation in diluent: D5W (5% Dextrose USP Grade Inj): 10-20 μL DMSO dissolved peptide added to D5W; for Precipitation in diluent: Liposome: 10-20 μL DMSO dissolved peptide added to Liposome; for Precipitation in diluent: PBS pH 7.4: 10-20 μL DMSO dissolved peptide added to PBS pH 7.4; for Precipitation in diluent: Water: 10-20 μL DMSO dissolved peptide added to Water
Protocol: Additional peptide solubility conditions were tested. Peptides CS6709, CS6712, CS6720, CS6726, and CS6783 were weighed at approximately 10 mg each. The peptides were then dissolved in approximately 200 μL USP grade DMSO to obtain a 50 mg/mL concentration for each peptide. […] The sample appeared to be cloudy. Additional 50 μL increments of DMSO were added to Peptide CS6709 up to 400 μL; for a total of 600 μL of DMSO. […] To dilute the peptides to 400 μg, a PBS pH 7.4 solution without potassium was prepared. All 5 DMSO peptide samples (50 mg/mL) were placed in a single vial for dilution to 400 μg/mL. Each DMSO peptide was added to the vial at 40 μL, except for CS6709 which was at a concentration of 16.67 mg/mL. The volume of CS6709 added to the single vial was 120 μL. The samples were diluted to 400 μg by adding 4.72 mL PBS pH 7.4. Upon addition of the PBS pH 7.4, it was observed that one or more of the peptides had precipitated out. To determine which of the peptides precipitated, Applicants followed the matrix in Table 5 below using very small amounts (10-20 μL) of the DMSO dissolved peptides and adding these peptides to the various liquids.

[3] = Direct dissolution of peptides in D5W without DMSO; details: <1 mg peptide
[4] = pH of peptide solutions in DMSO/D5W, with succinate, and with Hiltonol

Substance: H-LTDLPGRIRVAPQQNDLDSPQQISISNAE-OH [CS6709]
Concentration at which peptide went into solution (clear) in DMSO [1]: 16670 µg/mL | Dissolution in DMSO at 50 mg/mL ([1]; 10.02 mg in 200 μL DMSO): did not fully dissolve | Precipitation in diluent: 10% Sucrose [2]: NP | Precipitation in diluent: D5W (5% Dextrose USP Grade Inj) [2]: NP | Precipitation in diluent: Liposome [2]: NP | Precipitation in diluent: PBS pH 7.4 [2]: NP | Precipitation in diluent: Water [2]: NP | Dissolution directly in D5W without using DMSO [3]: could be dissolved directly in D5W

Substance: H-LKDSNSWPPSNKRGFDTEDAHKSNATPVP-OH [CS6712]
Precipitation in diluent: 10% Sucrose [2]: NP | Precipitation in diluent: D5W (5% Dextrose USP Grade Inj) [2]: NP | Precipitation in diluent: Liposome [2]: NP | Precipitation in diluent: PBS pH 7.4 [2]: NP | Precipitation in diluent: Water [2]: NP | Dissolution directly in D5W without using DMSO [3]: could be dissolved directly in D5W

Substance: H-SPTEPSTKLPGFDSCGNTEIAERKIKRIYGGFK-OH [CS6720]
Precipitation in diluent: 10% Sucrose [2]: NP | Precipitation in diluent: D5W (5% Dextrose USP Grade Inj) [2]: NP | Precipitation in diluent: Liposome [2]: NP | Precipitation in diluent: PBS pH 7.4 [2]: NP | Precipitation in diluent: Water [2]: NP | Dissolution directly in D5W without using DMSO [3]: could be dissolved directly in D5W

Second part, the substance after the results:

pH of peptides in DMSO/D5W [4]: 3.96 | Precipitation in diluent: 10% Sucrose [2]: NP | Precipitation in diluent: D5W (5% Dextrose USP Grade Inj) [2]: NP | Precipitation in diluent: Liposome [2]: P | Precipitation in diluent: PBS pH 7.4 [2]: P | Precipitation in diluent: Water [2]: NP | Precipitation when PBS pH 7.4 added as diluent to the peptide mixture ([2]; dilution to 400 μg/mL): precipitate | Dissolution directly in D5W without using DMSO [3]: could not be dissolved
Substance: H-LLTDRNTSGTTFTLLGVSDYPELQVPLFLVFLA-OH [CS6783]

Precipitation in diluent: 10% Sucrose [2]: NP | Precipitation in diluent: D5W (5% Dextrose USP Grade Inj) [2]: NP | Precipitation in diluent: Liposome [2]: NP | Precipitation in diluent: PBS pH 7.4 [2]: NP | Precipitation in diluent: Water [2]: NP | Dissolution directly in D5W without using DMSO [3]: could be dissolved directly in D5W
Substance: H-DSAVDKGHPNRSALSLTPGLRIGPSGIPQAGLG-OH [CS6726]
